Results reported in patent US20250163104A1, “MACROCYCLIC IMMUNOMODULATORS” (priority 2021, published 2025).
Where a SMILES comes first, the peptide text is derived from it. Bridges are numbered along the chain shown (N, C = ends). [ ]: non-standard residue; d: D form. The star is where a group is joined. ξ: configuration not given here. Phe(3-CF3) = N[C@@H](Cc1cccc(C(F)(F)F)c1)C(=O)O; Phe(4-COOH) = N[C@@H](Cc1ccc(C(=O)O)cc1)C(=O)O; Bip = N[C@@H](Cc1ccc(-c2ccccc2)cc1)C(=O)O; Abu(3R-NH2) = C[C@@H](N)[C@H](N)C(=O)O; Phe(3-Me) = Cc1cccc(C[C@H](N)C(=O)O)c1; Phe(4-F) = N[C@@H](Cc1ccc(F)cc1)C(=O)O; Val(3-OH) = CC(C)(O)[C@H](N)C(=O)O; 4Pal = N[C@@H](Cc1ccncc1)C(=O)O; αMeE = C[C@](N)(CCC(=O)O)C(=O)O; Cha = N[C@@H](CC1CCCCC1)C(=O)O; Cit = NC(=O)NCCC[C@H](N)C(=O)O; Carboxymethyl = O=C(O)C*; Orn = NCCC[C@H](N)C(=O)O; Pra = C#CC[C@H](N)C(=O)O; Dab = NCC[C@H](N)C(=O)O; Dap = NC[C@H](N)C(=O)O; ξA = CC(N)C(=O)O

molecular target: T1, human PD-1 / PD-L1-Ig binding on Jurkat cell line over-expressing human PD-1 (Jurkat-PD-1) (Homo sapiens, UniProt Q15116); assay: Jurkat-PD-1 Cell Binding High-Content Screening Assay (CBA); assay type: cell-based; settings: Jurkat-PD-1 cells, PE-labeled PD-L1-Ig 20 nM final; read-out: Jurkat HPD1_PDL1 IC50
T1 construct: expressed in transfected cells; host or cells: Jurkat
How it was run: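 PE-PD-L1-Ig 20 nM final; cells in DMEM/10% FCS; cpd pre-incubation 2 h, 37° C; ligand 1 h; PFA fix + Hoechst 33342; high-content imaging read-out.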

T1 sequence (Q15116 25-288): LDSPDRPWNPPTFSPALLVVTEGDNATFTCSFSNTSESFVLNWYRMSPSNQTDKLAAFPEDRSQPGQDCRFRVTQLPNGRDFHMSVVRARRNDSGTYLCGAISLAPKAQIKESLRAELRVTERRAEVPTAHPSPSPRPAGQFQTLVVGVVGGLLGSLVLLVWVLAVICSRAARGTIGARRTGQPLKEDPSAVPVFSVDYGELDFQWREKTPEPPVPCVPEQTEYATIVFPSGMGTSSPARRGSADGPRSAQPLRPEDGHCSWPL

SMILES | IC50
CC(C)C[C@H]1NC(=O)[C@H](CCCN)NC(=O)[C@H](Cc2ccc(C(=O)O)cc2)NC(=O)[C@H](Cc2ccc(-c3ccccc3)cc2)NC(=O)[C@H](Cc2ccc(C(=O)O)cc2)NC(=O)[C@H](Cc2cccc(C(F)(F)F)c2)NC(=O)[C@H](CC(N)=O)NC(=O)[C@H](Cc2ccc(C(=O)O)cc2)NC(=O)[C@H]([C@@H](C)N)NC(=O)CSC[C@@H](C(=O)N[C@@H](CCN)C(N)=O)NC(=O)[C@H](CO)NC(=O)[C@H](C(C)(C)O)NC(=O)[C@H](CC2CCCCC2)NC(=O)[C@H](CCN)NC1=O [Example 2717] ({CH2CO}-[Abu(3R-NH2)][Phe(4-COOH)]N[Phe(3-CF3)][Phe(4-COOH)][Bip][Phe(4-COOH)][Orn][dL][Dab][Cha][Val(3-OH)]SC[Dab]-NH2; thioether N-14) | 35.6 nM
CC(C)C[C@H]1NC(=O)[C@H](CCCN)NC(=O)[C@H](CCCNC(N)=O)NC(=O)[C@H](Cc2ccc(-c3ccccc3)cc2)NC(=O)[C@H](C(C)C)NC(=O)[C@H](Cc2c[nH]c3ccccc23)NC(=O)[C@H](CC(=O)O)NC(=O)[C@](C)(CCC(=O)O)NC(=O)[C@H](CN)NC(=O)CSC[C@@H](C(=O)N[C@@H](C)C(N)=O)NC(=O)[C@H]([C@@H](C)O)NC(=O)[C@H](C(C)C)NC(=O)[C@H](CC2CCCCC2)NC(=O)[C@H](CCN)NC1=O [Compound 2136] ({CH2CO}-[Dap][αMeE]DWV[Bip][Cit][Orn][dL][Dab][Cha]VTCA-NH2; thioether N-14) | 814 nM
CC(C)C[C@H]1NC(=O)[C@H](CCCN)NC(=O)[C@H](CCN)NC(=O)[C@H](Cc2ccc(-c3ccccc3)cc2)NC(=O)[C@H](C(C)C)NC(=O)[C@H](Cc2c[nH]c3ccccc23)NC(=O)[C@H](CC(=O)O)NC(=O)[C@H](Cc2ccncc2)NC(=O)[C@H](CN)NC(=O)CSC[C@@H](C(=O)N[C@@H](C)C(N)=O)NC(=O)[C@H]([C@@H](C)O)NC(=O)[C@H](C(C)C)NC(=O)[C@H](CC2CCCCC2)NC(=O)[C@H](CCN)NC1=O [Compound 1387] | 24.9 nM
C#CC[C@H](NC(=O)C(C)NC(=O)[C@@H]1CSCC(=O)N[C@@H](Cc2ccncc2)C(=O)N[C@@H](Cc2ccc(C(=O)O)cc2)C(=O)N[C@@H](CC(=O)O)C(=O)N[C@@H](Cc2cccc(C)c2)C(=O)N[C@@H](Cc2ccc(OCC(=O)O)cc2)C(=O)N[C@@H](Cc2ccc(-c3ccccc3)cc2)C(=O)N[C@@H](Cc2ccc(OCC(=O)O)cc2)C(=O)N[C@@H](CCCN)C(=O)N[C@H](CC(C)C)C(=O)N[C@@H](CCN)C(=O)N[C@@H](CC2CCCCC2)C(=O)N[C@@H](C(C)(C)O)C(=O)N[C@@H](CO)C(=O)N1)C(N)=O (stereo partly drawn) [Compound 2329] ({CH2CO}-[4Pal][Phe(4-COOH)]D[Phe(3-Me)]Y(Carboxymethyl)[Bip]Y(Carboxymethyl)[Orn][dL][Dab][Cha][Val(3-OH)]SC[ξA][Pra]-NH2; thioether N-14) | 973 nM
CC(C)C[C@H]1NC(=O)[C@H](CCCN)NC(=O)[C@H](CCC(=O)O)NC(=O)[C@H](Cc2ccc(-c3ccccc3)cc2)NC(=O)[C@H](C(C)C)NC(=O)[C@H](Cc2cccc(Cl)c2)NC(=O)[C@H](CC(=O)O)NC(=O)[C@H](Cc2ccc(C(=O)O)cc2)NC(=O)[C@H](Cc2ccc(OCC(=O)O)cc2)NC(=O)CSC[C@@H](C(=O)N[C@@H](C)C(N)=O)NC(=O)[C@H]([C@@H](C)O)NC(=O)[C@H](C(C)C)NC(=O)[C@H](CC2CCCCC2)NC(=O)[C@H](CCN)NC1=O [Compound 1492] | 27.4 nM

More lines, in order of falling IC50, values ahead:

IC50 | SMILES
119 nM | CC(C)C[C@@H]1NC(=O)[C@H](CCN)NC(=O)[C@@H](CC(C)C)NC(=O)[C@H](CCCN)NC(=O)[C@H](CCCNC(N)=O)NC(=O)[C@H](Cc2ccc(-c3ccccc3)cc2)NC(=O)[C@H](C(C)C)NC(=O)[C@H](Cc2c[nH]c3ccccc23)NC(=O)[C@H](CC(=O)O)NC(=O)[C@H](Cc2ccncc2)NC(=O)[C@H](CN)NC(=O)CSC[C@@H](C(=O)N[C@@H](C)C(N)=O)NC(=O)[C@H]([C@@H](C)O)NC(=O)[C@H](C(C)C)NC1=O [Compound 1240] ({CH2CO}-[Dap][4Pal]DWV[Bip][Cit][Orn][dL][Dab]LVTCA-NH2; thioether N-14)
24.7 nM | CC[C@H](C)[C@@H]1NC(=O)[C@H](Cc2c[nH]c3ccccc23)NC(=O)[C@H](CC(=O)O)NC(=O)[C@H](Cc2ccc(OCC(=O)O)cc2)NC(=O)[C@H](CN)NC(=O)CSC[C@@H](C(=O)N[C@@H](C)C(N)=O)NC(=O)[C@H]([C@@H](C)O)NC(=O)[C@H](C(C)C)NC(=O)[C@H](CC2CCCCC2)NC(=O)[C@H](CCN)NC(=O)[C@@H](CC(C)C)NC(=O)[C@H](CCCN)NC(=O)[C@H]([C@@H](C)CC)NC(=O)[C@H](Cc2ccc(-c3ccccc3)cc2)NC1=O [Compound 1725] ({CH2CO}-[Dap]Y(Carboxymethyl)DWI[Bip]I[Orn][dL][Dab][Cha]VTCA-NH2; thioether N-14)
23.3 nM | CC(C)C[C@H]1NC(=O)[C@H](CCCN)NC(=O)[C@H](C(C)C)NC(=O)[C@H](Cc2ccc(-c3ccccc3)cc2)NC(=O)[C@H](C(C)C)NC(=O)[C@H](Cc2c[nH]c3ccccc23)NC(=O)[C@H](CC(=O)O)NC(=O)[C@H](Cc2ccc(OCC(=O)O)cc2)NC(=O)[C@H](CN)NC(=O)CSC[C@@H](C(=O)N[C@@H](C)C(N)=O)NC(=O)[C@H]([C@@H](C)O)NC(=O)[C@H](C(C)C)NC(=O)[C@H](CC2CCCCC2)NC(=O)[C@H](CCC(=O)O)NC1=O [Compound 1522] ({CH2CO}-[Dap]Y(Carboxymethyl)DWV[Bip]V[Orn][dL]E[Cha]VTCA-NH2; thioether N-14)
19.3 nM | CC(C)C[C@@H]1NC(=O)[C@H](CCCCN)NC(=O)[C@@H](CC(C)C)NC(=O)[C@H](CCN)NC(=O)[C@H](Cc2cnc[nH]2)NC(=O)[C@H](Cc2ccc(-c3ccccc3)cc2)NC(=O)[C@H](C(C)C)NC(=O)[C@H](Cc2c[nH]c3ccccc23)NC(=O)[C@H](CC(=O)O)NC(=O)[C@H](Cc2ccc(O)cc2)NC(=O)[C@H](CC(N)=O)NC(=O)CSC[C@@H](C(=O)N[C@@H](C)C(N)=O)NC(=O)[C@H](CO)NC(=O)[C@H](C(C)C)NC1=O [Compound 1138] ({CH2CO}-NYDWV[Bip]H[Dab][dL]KLVSCA-NH2; thioether N-14)
15.9 nM | CC(C)C[C@H]1NC(=O)[C@H](CCCN)NC(=O)[C@H](CCCNC(N)=O)NC(=O)[C@H](Cc2ccc(-c3ccccc3)cc2)NC(=O)[C@H](C(C)C)NC(=O)[C@H](Cc2c[nH]c3ccccc23)NC(=O)[C@H](CC(=O)O)NC(=O)[C@H](Cc2ccc(F)cc2)NC(=O)[C@H](CN)NC(=O)CSC[C@@H](C(=O)N[C@@H](C)C(N)=O)NC(=O)[C@H]([C@@H](C)O)NC(=O)[C@H](C(C)C)NC(=O)[C@H](CC2CCCCC2)NC(=O)[C@H](CCN)NC1=O [Compound 2103] ({CH2CO}-[Dap][Phe(4-F)]DWV[Bip][Cit][Orn][dL][Dab][Cha]VTCA-NH2; thioether N-14)
13.6 nM | CC(C)C[C@H]1NC(=O)[C@H](CCCN)NC(=O)[C@H](CCC(=O)O)NC(=O)[C@H](Cc2ccc(-c3ccccc3)cc2)NC(=O)[C@H](C(C)C)NC(=O)[C@H](Cc2cccc(C(F)(F)F)c2)NC(=O)[C@H](CC(=O)O)NC(=O)[C@H](Cc2ccc(C(=O)O)cc2)NC(=O)[C@H](Cc2ccc(OCC(=O)O)cc2)NC(=O)CSC[C@@H](C(=O)N[C@@H](C)C(N)=O)NC(=O)[C@H]([C@@H](C)O)NC(=O)[C@H](C(C)C)NC(=O)[C@H](CC2CCCCC2)NC(=O)[C@H](CCN)NC1=O [Compound 1461]
